Assay results published in US7094581B2, “Hyaluronan synthases and methods of making and using same” (The Board of Regents of the University of Oklahoma, priority 1998, dated 2006).
Like-named read-outs stand apart in the source and are kept apart here.

Legend:
seHAS [1] = assay: Effect of sulfhydryl reagents on seHAS activity in E. coli membranes; assay type: biochemical, Streptococcus equisimilis; settings: E. coli membranes with seHAS-H6, 4° C. 1 h, 5 mM NEM, 5 mM IAA, 0.5 mM 5,5′-dithiobis-(2-nitrobenzoic acid), 0.05 mM methylmethanethiosulfonate, 10 mM sodium arsenite
Description: (§1) SeHAS is the smallest HAS protein (417 amino acids) and contains four Cys residues. […] To explore the possible role of cysteines in the function of HAS, the activities of seHAS and spHAS were assayed in the presence of different sulfhydryl reagents (Table II). […] The inhibition of each HAS by NEM was examined in more detail with respect to time of incubation and NEM concentration (FIG. 2).
(§2) E. coli SURE cells transformed with plasmids containing various seHAS mutants were grown in LB medium with vigorous shaking at 32° C. to A600 ˜0.8 and induced with 1 mM isopropyl-β-thiogalactoside for 3 h. Cells were harvested and membranes were prepared as described previously. The kinetic constants for HAS were determined at 37° C. in 100 μl of 50 mM sodium and potassium phosphate, pH 7.0, with 20 mM MgCl2, 1 mM DTE, 240 μM UDP-GIcUA, 0.7 μM UDP-[^14C]GIcUA and 0.6–1.0 mM UDP-GIcNAc. in 100 μl of 25 mM sodium and potassium phosphate, pH 7, containing 50 mM NaCl, 20 mM MgCl2, 1 mM dithiothreitol, 1 mM UDP-GIcUA, 0.68 μM UDP-GIcUA and 1 mM UDP-GIcNAc. Some assays also contained 0.1 mM EDTA and 20% glycerol (v/v). To initiate the enzyme reaction, ˜0.5–40 μg of membrane protein was added and the mixtures were gently shaken in a MicroMixer X-36 (Tiatec) at 30° C. for 1–2 h. Reactions were terminated by the addition of SDS to a final concentration of 2% (w/v). The incorporation of radioactive [^14C]GIcUA was determined by descending paper chromatography and the Km and Vmax values were determined as described by Tlapak-Simmons et al (1999b). Data were analyzed by the methods of Michaelis-Menton or Hill. Protein content was determined by the method of Bradford using bovine serum albumin as the standard. All Cys-mutant or sulfhydryl-treated seHAS samples were assayed in duplicate or triplicate using two or three independent membrane preparations. […] All enzyme assays were performed under conditions that were linear with respect to time and protein concentration.
(§3) Stock solutions (10–100 mM) of NEM, IAA or other sulfhydryl reagents were made in PBS, pH 7.0. Suspensions of membranes containing seHAS or spHAS were incubated with 0–5 mM of the sulfhydryl reagent at 4° C. and the reactions were stopped by adding DTE to a final concentration of 10 mM. The membranes were then assayed for HAS activity as described above.

spHAS [2] = target: T1, spHAS (Streptococcus pyogenes serotype M6, UniProt Q5X9A9); assay: Effect of sulfhydryl reagents on spHAS activity in E. coli membranes; assay type: biochemical; settings: for Inhibition of HAS Activity (% relative to control), spHAS: E. coli membranes with spHAS-H6, 4° C. 1 h, 5 mM NEM, 5 mM IAA, 0.5 mM 5,5′-dithiobis-(2-nitrobenzoic acid), 0.05 mM methylmethanethiosulfonate, 10 mM sodium arsenite
T1 construct: made in house; host or cells: E. coli SURE cells (isolated membranes)
T1 sequence (Q5X9A9 1-419): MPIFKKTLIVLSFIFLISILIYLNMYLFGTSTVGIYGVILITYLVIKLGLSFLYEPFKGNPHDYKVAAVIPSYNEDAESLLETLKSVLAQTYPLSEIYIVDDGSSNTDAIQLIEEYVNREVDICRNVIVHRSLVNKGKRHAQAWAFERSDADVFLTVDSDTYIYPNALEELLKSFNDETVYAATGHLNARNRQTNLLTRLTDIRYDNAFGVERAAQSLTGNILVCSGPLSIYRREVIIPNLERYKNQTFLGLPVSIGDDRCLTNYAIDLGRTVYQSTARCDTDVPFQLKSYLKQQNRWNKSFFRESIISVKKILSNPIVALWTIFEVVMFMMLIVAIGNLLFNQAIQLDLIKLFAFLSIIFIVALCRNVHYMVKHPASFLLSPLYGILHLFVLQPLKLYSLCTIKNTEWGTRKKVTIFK
Description: as §1, §2, §3

wild-type seHAS = assay: Utilization of UDP-GlcUA and UDP-GlcNAc by wild-type seHAS after NEM or sodium arsenite treatment; assay type: biochemical, Streptococcus equisimilis; settings: membranes 4° C. 1 h with 5 mM NEM or 10 mM sodium arsenite
Description: FIG. 3. Effect of NEM or sodium arsenite treatment on the utilization of UDP-GIcUA and UDP-GIcNAc by wild-type seHAS. E. coli membranes containing seHAS protein were incubated at 4° C. for 1 h in PBS containing 5 mM NEM or 10 mM Sodium Arsenite (SodArs), and the control membranes were incubated with PBS alone. Michaelis-Menten constants (Km) were calculated from the activities of seHAS at varying concentrations of UDP-GIcUA or UDP-GIcNAc.
Modification of the protein by NEM could affect any one or several of the six discrete functions that HAS must perform in order to synthesize HA. In order to determine if one of the nucleotide-sugar binding sites was affected by NEM, we examined the UDP-GIcUA and UDP-GIcNAc saturation profiles for treated and untreated seHAS (FIG. 3 and Table III).
E. coli SURE cells transformed with plasmids containing various seHAS mutants were grown in LB medium with vigorous shaking at 32° C. to A600 ˜0.8 and induced with 1 mM isopropyl-β-thiogalactoside for 3 h. Cells were harvested and membranes were prepared as described previously. The kinetic constants for HAS were determined at 37° C. in 100 μl of 50 mM sodium and potassium phosphate, pH 7.0, with 20 mM MgCl2, 1 mM DTE, 240 μM UDP-GIcUA, 0.7 μM UDP-[^14C]GIcUA and 0.6–1.0 mM UDP-GIcNAc. in 100 μl of 25 mM sodium and potassium phosphate, pH 7, containing 50 mM NaCl, 20 mM MgCl2, 1 mM dithiothreitol, 1 mM UDP-GIcUA, 0.68 μM UDP-GIcUA and 1 mM UDP-GIcNAc. Some assays also contained 0.1 mM EDTA and 20% glycerol (v/v). To initiate the enzyme reaction, ˜0.5–40 μg of membrane protein was added and the mixtures were gently shaken in a MicroMixer X-36 (Tiatec) at 30° C. for 1–2 h. Reactions were terminated by the addition of SDS to a final concentration of 2% (w/v). The incorporation of radioactive [^14C]GIcUA was determined by descending paper chromatography and the Km and Vmax values were determined as described by Tlapak-Simmons et al (1999b). Data were analyzed by the methods of Michaelis-Menton or Hill. Protein content was determined by the method of Bradford using bovine serum albumin as the standard. All Cys-mutant or sulfhydryl-treated seHAS samples were assayed in duplicate or triplicate using two or three independent membrane preparations. Results are presented as the mean±standard errors. All enzyme assays were performed under conditions that were linear with respect to time and protein concentration. None of the seHAS variant enzymes were unstable under the conditions employed.

spHAS [3] = assay: Kinetic analysis of Cys-mutants of spHAS, normalized to spHAS protein; assay type: biochemical, Streptococcus pyogenes; parameters: Vmax: unit not given here
Description: Kinetic analyses of the single and multiple spHAS Cys-mutants were performed to investigate the possibility that multiple Cys residues are critical in a coordinated way for enzyme activity. […] The spHAS(C225S) and spHAS(C280A) mutants had the most reduced activities with Vmax values at 30–50% of wildtype. The spHAS(C261,280A) and Cys-null mutant had 50–75% of the wildtype activity.
Membranes were isolated from E. coli SURE strains expressing mutant or wildtype spHAS, fractionated by SDS-PAGE according to the procedure of Laemmli (1970) and the proteins were electrotransferred to nitrocellulose as described by Towbin et al. (1979) with minor modifications (Tlapak-Simmons, et al., 1998). Western analysis was performed by incubating these blots for 1 h at room temperature with a biotinylated anti-His5 monoclonal antibody, as the primary antibody, then washing and incubating with 3 μg/ml ^125I-streptavidin, prepared as described hereinabove. After 1 h at room temperature, the blots were washed, dried and exposed to a Phosphoscreen for 1 to 72 h. The screens were analyzed using a Molecular Dynamics Phosphoimager and integrated density values were obtained for each spHAS band. Integrated density values were also obtained for increasing amounts of affinity-purified spHAS (Tlapak-Simmons et al., 1999a), which was used as an internal standard in the same blot to generate a standard curve. Dilutions of membrane samples were made as necessary to ensure that all estimates of HAS quantity were in the linear range of the assay. Those membrane samples giving a linear response with increasing protein were then compared to the standard curve to calculate the amount of spHAS present per μl membrane suspension. These values were then used to normalize the kinetic results obtained using membranes from the various spHAS mutants.
E. coli SURE cells, previously transformed with plasmids containing wildtype or mutant spHAS genes, were grown to an A600 of ˜1.2 and induced with 1 mM isopropyl thio-β-D-galactoside for three h. Cells were harvested and membranes were prepared as described previously (Tlapak-Simmons, et al., 1999a). The activities of mutant spHAS variants were assessed by measuring their Vmax and Km values in isolated membranes, normalized as described above for the amount of enzyme expressed. The Km values were determined using a descending paper chromatography assay (Tlapak-Simmons, et al., 1999b), holding one UDP-sugar substrate constant and varying the other from 0.01 to 4 mM. Data were analyzed by linear regression using Haynes-Wolf plots for UDP-GIcUA or Hill plots for UDP-GIcNAc.

seHAS [4] = assay type: biochemical, Streptococcus equisimilis; settings: for Hill number: seHAS variants, UDP-GlcNAc utilization
Description: as §2

O=C(O)c1cc(SSc2ccc([N+](=O)[O-])c(C(=O)O)c2)ccc1[N+](=O)[O-] [5,5′-dithiobis-(2-nitrobenzoic acid)]
Inhibition of HAS Activity (% relative to control), seHAS (seHAS [1]): 52 ± 6.5%
Inhibition of HAS Activity (% relative to control), spHAS (spHAS [2]): 52 ± 4.9%

O=C(O)CI [Iodacetic acid]
Inhibition of HAS Activity (% relative to control), seHAS (seHAS [1]): 15%
Inhibition of HAS Activity (% relative to control), spHAS (spHAS [2]): 13 ± 5.4%

CSS(C)(=O)=O [Methylmethanethiosulfonate]
Inhibition of HAS Activity (% relative to control), seHAS (seHAS [1]): 93 ± 5.4%
Inhibition of HAS Activity (% relative to control), seHAS (seHAS [1]; listed as methylmethanethiosulfonate): > 93%
Inhibition of HAS Activity (% relative to control), spHAS (spHAS [2]): 89 ± 5.5%

O=[As]O [Sodium Arsenite]
Inhibition of HAS Activity (% relative to control), seHAS (seHAS [1]): 40 ± 4.0%
inhibition at 10000 µM (spHAS [2]; read-out: Inhibition of HAS Activity (% relative to control), spHAS): 46 ± 5.1%
Vmax of treated wild-type seHAS, UDP-GlcNAc (wild-type seHAS): 9.5 ± 1.1 nmol/µg/h
Vmax of treated wild-type seHAS, UDP-GlcUA (wild-type seHAS): 9.5 ± 1.1 nmol/µg/h
Km (wild-type seHAS; read-out: Km for UDP-GlcNAc of treated wild-type seHAS): 112 ± 38 µM
Km (wild-type seHAS; read-out: Km for UDP-GlcUA of treated wild-type seHAS): 67 ± 23 µM

B1: Wildtype: wildtype Streptococcus pyogenes hyaluronan synthase (spHAS-His6), SEQ ID NO:4 (protein)
chain: T1 sequence (Q5X9A9 1-419)
modifications: His6 tag; Streptococcus pyogenes
Hill number (spHAS [3]; UDP-GlcNAc utilization): 1.8 ± 0.1
Km (spHAS [3]; at 0.5 mM UDP-GlcUA, read-out: Km UDP-GlcNAc): 398 ± 112 µM
Km (spHAS [3]; at 1.5 mM UDP-GlcNAc, read-out: Km UDP-GlcUA): 50.4 ± 10.8 µM
Vmax (spHAS [3]; both substrates incorporated per hour per pmol spHAS): 791 ± 215

B2: WT: wild-type Streptococcus equisimilis hyaluronan synthase (seHAS-His6), SEQ ID NO:2 (protein, listed as Streptococcus equisimilis)
chain: MRTLKNLITVVAFSIFWVLLIYVNVYLFGAKGSLSIYGFLLIAYLLVKMSLSFFYKPFKGRAGQYKVAAIIPSYNEDAESLLETLKSVQQQTYPLAEIYVVDDGSADETGIKRIEDYVRDTGDLSSNVIVHRSEKNQGKRHAQAWAFERSDADVFLTVDSDTYIYPDALEELLKTFNDPTVFAATGHLNVRNRQTNLLTRLTDIRYDNAFGVERAAQSVTGNILVCSGPLSVYRREVVVPNIDRYINQTFLGIPVSIGDDRCLTNYATDLGKTVYQSTAKCITDVPDKMSTYLKQQNRWNKSFFRESIISVKKIMNNPFVALWTILEVSMFMMLVYSVVDFFVGNVREFDWLRVLAFLVIIFIVALCRNIHYMLKHPLSFLLSPFYGVLHLFVLQPLKLYSLFTIRNADWGTRKKLL
modifications: His6 tag
Vmax (seHAS [4]; seHAS variants in membranes from E. coli SURE cells): 5.60 ± 0.48 nmol/pmol/h
Km (seHAS [4]; seHAS variants in membranes from E. coli SURE cells, read-out: Km for UDPGlcNAc): 74 ± 7 µM
Km (seHAS [4]; seHAS variants in membranes from E. coli SURE cells, read-out: Km for UDPGlcUA): 77 ± 5 µM
Hill number (seHAS [4]): 1.1 ± 0.1
Hill number (seHAS [4]; listed as wild-type): 1.0
